The record followed here is patent US8785483B2, “Methods for treating COPD” (The Board of Regents of the University of Texas System, priority 2010, dated 2014).

Assay [1] concerns goblet cell metaplasia in mice lungs. The assay is described as follows: RWE-induced goblet cell metaplasia in mice lungs (PAS stain). The class given is in vivo. Particulars: RWE-sensitized and challenged mice, fidarestat 7 mg/kg body wt/day in drinking water, 72 h after challenge. The method, then:
FIGS. 10A-10B. Inhibition or deficiency of AR prevents RWE-induced goblet cell metaplasia in mice lungs. RWE-sensitized normal and AR-null mice were challenged with RWE and 72 h later the lungs were harvested from mice treated without or with AR inhibitor (A) or AR-null mice (B), perfused and fixed with 4% paraformaldehyde and embedded in paraffin. The sections were stained with PAS stain and observed under light microscope and photomicrographs were acquired. A representative photomicrograph from each group is shown (n=4). Magnification 200× (A); 400× (B).
Wild type C57BL/6 and Balb/cJ mice were purchased from Harlan Sprague-Dawley (San Diego, Calif., USA) and AR null mice on C57BL/6 background were bread by us at Animal resource center, UTMB, Galveston, Tex. Six-eight weeks old female mice were sensitized with RWE as previously described (Hwang et al., FASEB J. 19: 795-797, 2005). Briefly, mice were sensitized with two intraperitoneal administrations of 100 μl of endotoxin-free RWE (150 μg) combined with Alum adjuvant (1 mg) in a 3:1 ratio (v/v), on days 0 and 4. On day 11, mice (n=6) were challenged intranasally with RWE (100 μg). A parallel group of mice received fidarestat (7 mg/kg body wt/day) in drinking water from one day before the challenge. Control groups of mice were challenged with equivalent volumes of PBS. […]

The subject of assay [2] is SPDEF. The experiment in a line: Western blot of SPDEF in IL-13-treated SAEC monolayer. Format: cell-based, human. Particulars: airway epithelial monolayer, IL-13 24 and 48 h, immunoblotting. The method, then: FIGS. 6A-6B. AR inhibition prevents IL-13-induced expression of Mucin and transcription factor SPDEF in airway epithelial cell monolayer. (A) The airway epithelial cell monolayer at ALI was serum starved without or with fidarestat and incubated with IL-13 for 18 h. Total RNA was isolated and subsequently RT-PCR was performed to assess the expression of Muc5AC and SPDEF. The bar diagrams show densitometric analysis of the corresponding blots (n=4). *p<0.001 vs Control; **p<0.001 vs IL-13; (B) The monolayer of ciliated airway cells at ALI was treated with AR inhibitor for 24 h and subsequently incubated with IL-13 for 24 or 48 h. At the end of incubation, cell lysate was prepared and subjected to western blotting using antibodies against Muc5AC, Muc5B, and SPDEF. The membranes were stripped and re-probed with antibodies against GAPDH to show the equal loading of protein. A representative blot is shown (n=4). *p<0.0001 vs Control; **p<0.001 vs IL-13. […] Protein levels were determined using Bradford reagent (Biorad, Hercules, Calif.). […] The blots were then washed, exposed to HRP-conjugated secondary antibodies (1:5,000 dilution) for 1 h, and the antigen-antibody complex was detected by enhanced chemiluminescence (Amersham Pharmacia Biotech, Piscataway, N.J., USA). […]
(In general: A western blot detects proteins with antibodies after separation by electrophoresis.)

Regarding `NC(=O)[C@@H]1C[C@]2(NC(=O)NC2=O)c2cc(F)ccc2O1` [fidarestat, (2S,4S)-2-aminoformyl-6-fluoro-spiro[chroman-4,4′-imidazolidine]-2′,5′-dione], in assay [1], the “PAS positive cells in the airway” value was “absent”. Besides, in assay [2], the “prevention of IL-13-induced increase in SPDEF protein” value is around 50%.
